According to PMC3131451 (Journal of medicinal chemistry, 2010):

What was measured:
PI3Kα (PIK3CA/PIK3R1) = PI3Kα (PIK3CA/PIK3R1) (Homo sapiens, UniProt P42336); test: LanthaScreen Eu kinase binding assay PI3Kα; settings: for activity in words, biochemical and cell-based assays: both in the biochemical and cell-based assays (Table 1)
mTOR (FRAP1) = mTOR (FRAP1) (Homo sapiens, UniProt P42345); test: LanthaScreen Eu kinase binding assay mTOR; settings: read-out: Kinase assay IC50 mTOR
PDK1 = target: T1, PDK1 (Homo sapiens, UniProt O15530); test: Z'-LYTE kinase activity assay PDK1; assay type: biochemical; settings: read-out: Kinase assay IC50 PDK1, ATP at Km
T1 sequence (O15530 1-556): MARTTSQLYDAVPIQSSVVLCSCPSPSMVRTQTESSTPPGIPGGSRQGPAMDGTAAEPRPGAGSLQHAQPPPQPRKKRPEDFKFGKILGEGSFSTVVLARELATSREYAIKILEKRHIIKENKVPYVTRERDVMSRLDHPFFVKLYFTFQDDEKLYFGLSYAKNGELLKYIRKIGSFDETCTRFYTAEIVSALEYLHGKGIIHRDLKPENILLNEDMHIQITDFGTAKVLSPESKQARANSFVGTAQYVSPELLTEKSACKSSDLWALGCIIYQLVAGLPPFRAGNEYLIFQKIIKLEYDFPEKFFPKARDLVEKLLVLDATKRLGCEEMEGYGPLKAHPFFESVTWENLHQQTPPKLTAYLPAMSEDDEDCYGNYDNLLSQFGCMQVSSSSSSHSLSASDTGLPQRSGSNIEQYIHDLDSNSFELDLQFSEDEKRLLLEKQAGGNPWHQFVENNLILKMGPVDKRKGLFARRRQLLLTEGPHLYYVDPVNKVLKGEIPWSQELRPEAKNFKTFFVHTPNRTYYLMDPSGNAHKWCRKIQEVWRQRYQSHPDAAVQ

[1] = test system: Hela cervical carcinoma cells; test: Anti-proliferative assay; settings: Homo sapiens, 72 h, read-out: Cell-based Assay GI50 Hela
PI-3Kα = PI-3Kα (Homo sapiens, UniProt P42336); test: SelectScreen Biochemical Kinase Profiling PI-3Kα; settings: in vitro displacement assays against the PI3K isoforms
Sequence of PI-3Kα (P42336 whole entry, canonical isoform): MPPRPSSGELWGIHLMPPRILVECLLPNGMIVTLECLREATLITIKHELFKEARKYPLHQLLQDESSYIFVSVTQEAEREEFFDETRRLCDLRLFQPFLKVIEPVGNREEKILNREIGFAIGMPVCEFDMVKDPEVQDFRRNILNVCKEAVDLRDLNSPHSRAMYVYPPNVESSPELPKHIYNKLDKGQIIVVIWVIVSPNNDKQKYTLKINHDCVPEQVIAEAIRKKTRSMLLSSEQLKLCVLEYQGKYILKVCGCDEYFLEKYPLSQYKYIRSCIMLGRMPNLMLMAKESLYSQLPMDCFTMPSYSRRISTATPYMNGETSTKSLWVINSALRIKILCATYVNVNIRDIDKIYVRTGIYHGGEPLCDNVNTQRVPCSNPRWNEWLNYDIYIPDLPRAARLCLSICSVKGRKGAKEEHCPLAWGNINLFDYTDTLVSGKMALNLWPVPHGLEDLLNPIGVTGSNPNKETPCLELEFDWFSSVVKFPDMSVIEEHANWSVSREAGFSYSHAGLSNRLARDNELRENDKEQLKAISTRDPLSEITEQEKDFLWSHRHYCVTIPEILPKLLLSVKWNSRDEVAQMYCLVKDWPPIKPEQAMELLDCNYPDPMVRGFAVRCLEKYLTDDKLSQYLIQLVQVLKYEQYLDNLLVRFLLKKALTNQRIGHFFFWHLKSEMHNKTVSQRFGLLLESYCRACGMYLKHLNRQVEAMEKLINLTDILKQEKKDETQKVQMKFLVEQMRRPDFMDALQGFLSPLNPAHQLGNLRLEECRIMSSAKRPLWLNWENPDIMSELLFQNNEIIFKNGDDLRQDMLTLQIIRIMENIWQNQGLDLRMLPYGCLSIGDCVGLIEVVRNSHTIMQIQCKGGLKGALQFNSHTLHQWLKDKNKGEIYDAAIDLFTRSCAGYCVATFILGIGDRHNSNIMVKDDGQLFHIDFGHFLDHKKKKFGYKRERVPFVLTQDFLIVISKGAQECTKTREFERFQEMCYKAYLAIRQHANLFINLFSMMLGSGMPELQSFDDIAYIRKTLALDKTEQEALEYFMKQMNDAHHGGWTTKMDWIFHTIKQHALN
Sequence of PI-3Kα (P27986 whole entry partner, canonical isoform): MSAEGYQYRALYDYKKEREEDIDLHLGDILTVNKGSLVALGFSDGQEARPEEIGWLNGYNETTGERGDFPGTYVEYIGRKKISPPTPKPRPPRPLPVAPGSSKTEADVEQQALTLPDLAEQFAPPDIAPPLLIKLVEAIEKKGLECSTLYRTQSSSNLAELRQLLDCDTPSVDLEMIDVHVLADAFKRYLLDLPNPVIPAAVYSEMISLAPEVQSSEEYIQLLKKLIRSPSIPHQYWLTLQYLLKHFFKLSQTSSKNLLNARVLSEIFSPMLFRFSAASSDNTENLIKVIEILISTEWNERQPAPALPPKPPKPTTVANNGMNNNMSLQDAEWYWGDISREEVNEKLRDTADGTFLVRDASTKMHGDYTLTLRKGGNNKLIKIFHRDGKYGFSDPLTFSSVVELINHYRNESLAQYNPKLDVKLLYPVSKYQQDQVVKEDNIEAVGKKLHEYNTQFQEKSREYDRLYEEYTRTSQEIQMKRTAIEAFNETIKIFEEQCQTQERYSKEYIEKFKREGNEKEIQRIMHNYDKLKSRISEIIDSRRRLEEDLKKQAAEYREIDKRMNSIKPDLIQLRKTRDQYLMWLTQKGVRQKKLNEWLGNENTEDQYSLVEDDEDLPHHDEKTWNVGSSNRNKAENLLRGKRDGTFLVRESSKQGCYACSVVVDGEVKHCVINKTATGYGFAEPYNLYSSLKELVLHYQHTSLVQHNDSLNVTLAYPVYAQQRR

314 protein kinases = test: Selectivity panel against 314 protein kinases; assay type: biochemical; settings: 10 µM, preliminary selectivity panel
U87 glioblastoma cells = test: 3D culture assay, U87 spheroids; assay type: cell-based, human; settings: 10 µM every day, total of 6 days
DNA-PK = DNA-PK (Homo sapiens, UniProt P78527); test: Selectivity panel, kinase inhibition; assay type: biochemical
PRAS40 [pS183] = test: LanthaScreen cellular assay PRAS40 [pSer183]; settings: HEK293E, 1 h, read-out: Cell-based Assay IC50 PRAS40 [pS183]

Sequence of PI3Kα (PIK3CA/PIK3R1) (P42336 whole entry): as the sequence (P42336 whole entry, canonical isoform) above
Sequence of PI3Kα (PIK3CA/PIK3R1) (P27986 whole entry partner): as the sequence (P27986 whole entry partner, canonical isoform) above
Sequence of mTOR (FRAP1) (P42345 1360-2549 limits assumed): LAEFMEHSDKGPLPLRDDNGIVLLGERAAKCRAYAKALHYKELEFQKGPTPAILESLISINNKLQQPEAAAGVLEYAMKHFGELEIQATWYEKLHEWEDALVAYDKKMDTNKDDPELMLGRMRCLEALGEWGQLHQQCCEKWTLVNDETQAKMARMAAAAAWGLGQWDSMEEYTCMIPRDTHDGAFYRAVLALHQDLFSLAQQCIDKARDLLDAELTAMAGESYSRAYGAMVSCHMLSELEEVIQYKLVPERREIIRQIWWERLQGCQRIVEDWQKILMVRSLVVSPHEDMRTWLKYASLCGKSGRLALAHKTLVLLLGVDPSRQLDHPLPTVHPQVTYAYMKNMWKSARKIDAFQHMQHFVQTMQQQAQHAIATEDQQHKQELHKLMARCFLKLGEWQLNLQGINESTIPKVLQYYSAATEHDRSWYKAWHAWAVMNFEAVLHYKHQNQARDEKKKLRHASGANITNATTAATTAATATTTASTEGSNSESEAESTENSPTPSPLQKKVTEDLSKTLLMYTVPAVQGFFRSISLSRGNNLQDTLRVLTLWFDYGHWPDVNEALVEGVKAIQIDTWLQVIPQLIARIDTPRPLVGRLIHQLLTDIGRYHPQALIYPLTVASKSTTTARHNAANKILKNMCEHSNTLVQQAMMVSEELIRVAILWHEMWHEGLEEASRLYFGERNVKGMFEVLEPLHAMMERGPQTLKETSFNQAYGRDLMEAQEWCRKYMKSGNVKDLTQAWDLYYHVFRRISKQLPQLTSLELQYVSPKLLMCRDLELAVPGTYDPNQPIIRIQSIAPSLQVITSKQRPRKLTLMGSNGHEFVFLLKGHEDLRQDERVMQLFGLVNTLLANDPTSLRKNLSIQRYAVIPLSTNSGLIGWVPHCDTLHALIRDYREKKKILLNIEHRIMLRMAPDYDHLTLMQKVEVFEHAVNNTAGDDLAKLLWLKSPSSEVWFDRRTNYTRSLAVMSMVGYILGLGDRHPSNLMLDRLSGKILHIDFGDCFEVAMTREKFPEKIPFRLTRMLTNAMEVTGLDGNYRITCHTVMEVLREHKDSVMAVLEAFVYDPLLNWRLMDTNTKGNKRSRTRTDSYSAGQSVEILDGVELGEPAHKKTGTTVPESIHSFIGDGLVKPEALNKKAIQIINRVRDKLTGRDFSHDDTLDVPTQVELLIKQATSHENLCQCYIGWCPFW

Compound	IC50 (AKT [pT308])	PI3Kα activity in words (PI3Kα (PIK3CA/PIK3R1))	other results
C(#Cc1n[nH]c2ccccc12)c1ccccn1 [Compound 12, 3-(pyridin-2-ylethynyl)-1H-indazole]	> 100 µM	–	–
N#Cc1ccc(C#Cc2n[nH]c3ccccc23)cc1 [Compound 19, 4-((1H-indazol-3-yl)ethynyl)benzonitrile]	> 50 µM	poor activity	–
C(#Cc1n[nH]c2ccccc12)c1ccsc1 [Compound 18, 3-(thiophen-3-ylethynyl)-1H-indazole]	> 100 µM	poor activity	–
Nc1ccccc1C#Cc1n[nH]c2ccccc12 [Compound 16, 2-((1H-indazol-3-yl)ethynyl)aniline]	> 100 µM	–	–
C(#CC1CC1)c1n[nH]c2ccccc12 [Compound 15, 3-(cyclopropylethynyl)-1H-indazole]	> 50 µM	–	activity in words, biochemical and cell-based assays (PI3Kα (PIK3CA/PIK3R1)): inactive
CN(C)CC#Cc1n[nH]c2ccccc12 [Compound 11, 3-(1H-indazol-3-yl)-N,N-dimethylprop-2-yn-1-amine]	> 100 µM	–	activity in words, biochemical and cell-based assays (PI3Kα (PIK3CA/PIK3R1)): inactive
C(#Cc1n[nH]c2ncccc12)c1ccncc1 [Compound 20, 3-(pyridin-4-ylethynyl)-1H-pyrazolo[3,4-b]pyridine]	–	–	loss of PI3Kα activity versus compound 10 (PI3Kα (PIK3CA/PIK3R1); pyrazolopyridine analog compared with indazole 10): 10 fold
3-(pyridin-2-ylethynyl)-1H-pyrazolo[3,4-b]pyridine [Compound 21]	–	–	IC50 (mTOR (FRAP1)): 5 µM; IC50 (PDK1): > 50 µM; IC50 (PI3Kα (PIK3CA/PIK3R1); read-out: Kinase assay IC50 PI3Kα, LanthaScreen Eu kinase binding assay): 9 µM
Nc1ccc(C#Cc2n[nH]c3ccccc23)cc1 [Compound 6, 4-((1H-indazol-3-yl)ethynyl)aniline]	17.1 µM	–	GI50 [1]: 3.6 µM; selectivity for α isoform over the β and γ isoforms (PI-3Kα): about 100 fold
C(#Cc1n[nH]c2ccccc12)c1ccncc1 [Compound 10, 3-(pyridin-4-ylethynyl)-1H-indazole]	–	–	share of 314 protein kinases showing ≥ 50% inhibition (314 protein kinases): less than 10%; U87 spheroid cell growth/proliferation (spheroid volumes) (U87 glioblastoma cells): strongly suppressed cell growth/proliferation; inhibition at 10 µM (DNA-PK): > 50%
C(#CC1CCCC1)c1n[nH]c2ccccc12 [Compound 14, 3-(cyclopentylethynyl)-1H-indazol]	> 50 µM	–	activity in words, biochemical and cell-based assays (PI3Kα (PIK3CA/PIK3R1)): inactive
FC(F)(F)c1cc(C#Cc2n[nH]c3ccccc23)cc(C(F)(F)F)c1 [Compound 17, 3-((3,5-bis(trifluoromethyl)phenyl)ethynyl)-1H-indazole]	> 100 µM	poor activity	–
Fc1cc(F)cc(C#Cc2n[nH]c3ccccc23)c1 [Compound 8, 3-((3,5-difluorophenyl)ethynyl)-1H-indazole]	> 100 µM	poor activity	IC50 (PRAS40 [pS183]): > 200 µM
C(#Cc1n[nH]c2ccccc12)c1ccccc1 [Compound 7, 3-(phenylethynyl)-1H-indazole]	> 100 µM	poor activity	–
